Experimental data as given in PMC2075610 (Biochimica et Biophysica Acta. Molecular Basis of Disease, 2006).
Residues, ends and D or L forms follow the SMILES beside them. *: point of attachment. For = O=C*

Columns and labels:
[1] = target: T1, R190/N192 FPR (Homo sapiens, UniProt P21462); assay: biochemical; type: binding
[2] = target: T2, R190/K192 FPR (Homo sapiens, UniProt P21462, N192K); assay: biochemical; type: binding
[3] = target: T3, W190/N192 FPR (Homo sapiens, UniProt P21462, R190W); assay: biochemical; type: binding; conditions: for Ki: Ki (nM ± SEM) for binding of peptides to W190/N192 FPR
[4] = target: T1, R190/N192 FPR; assay: biochemical; type: biochemical
[5] = target: T2, R190/K192 FPR; assay: biochemical; type: biochemical
[6] = target: T3, W190/N192 FPR; assay: biochemical; type: biochemical
[7] = target: MMWLL; assay: flow
[8] = target: reverse 229E peptide; assay: flow

T1 sequence (P21462 whole entry, looked up): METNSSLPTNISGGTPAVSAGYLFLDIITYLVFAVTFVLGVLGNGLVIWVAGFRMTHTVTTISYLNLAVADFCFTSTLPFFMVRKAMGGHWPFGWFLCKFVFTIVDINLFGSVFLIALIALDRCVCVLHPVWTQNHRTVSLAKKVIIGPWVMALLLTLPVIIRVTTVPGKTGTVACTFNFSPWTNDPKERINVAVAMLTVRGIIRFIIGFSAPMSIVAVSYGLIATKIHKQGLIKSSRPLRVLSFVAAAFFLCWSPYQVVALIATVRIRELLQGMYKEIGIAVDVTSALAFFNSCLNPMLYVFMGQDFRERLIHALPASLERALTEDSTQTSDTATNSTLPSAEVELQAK

In the case of CC(C)C[C@H](NC(=O)[C@@H](N)CCCCN)C(=O)N[C@@H](CC(N)=O)C(=O)N[C@@H](CO)C(=O)N[C@@H](Cc1c[nH]c2ccccc12)C(=O)N[C@@H](CC(=O)O)C(=O)N[C@H](C(=O)N[C@@H](Cc1ccccc1)C(=O)NCC(=O)N[C@@H](CC(N)=O)C(=O)N[C@@H](Cc1c[nH]c2ccccc12)C(=O)N[C@@H](Cc1ccccc1)C(=O)O)C(C)C, the Ki [1] is reported as 15000 nM, the Ki [2] is reported as 9500 nM and the Ki [3] is reported as 4700 ± 290 nM.

CSCC[C@H](NC=O)C(=O)N[C@@H](Cc1ccc(O)cc1)C(=O)N[C@H](C(=O)N[C@@H](CCCCN)C(=O)N[C@@H](Cc1c[nH]c2ccccc12)C(=O)N1CCC[C@H]1C(=O)N[C@@H](Cc1c[nH]c2ccccc12)C(=O)N[C@@H](Cc1ccc(O)cc1)C(=O)N[C@H](C(=O)N[C@@H](Cc1c[nH]c2ccccc12)C(=O)N[C@@H](CC(C)C)C(=O)O)C(C)C)C(C)C (For-MYVKWPWYVWL-OH) gave a Ki [1] of 134 ± 9 nM, a Ki [2] of 134 ± 12 nM and a Ki [3] of 133 ± 8 nM. For the same molecule, the “stimulation of GTPγS binding” value [4] was “stimulated GTPγS binding”, the “stimulation of GTPγS binding” value [5] was “stimulated GTPγS binding” and the “stimulation of GTPγS binding” value [6] was “stimulated GTPγS binding”.

Molecule CC(C)C[C@H](NC(=O)[C@H](CO)NC(=O)[C@H](C)NC(=O)[C@H](Cc1c[nH]c2ccccc12)NC(=O)[C@H](CCCCN)NC(=O)[C@H](CC(=O)O)NC(=O)[C@H](CC(C)C)NC(=O)[C@@H](N)CCC(=O)O)C(=O)N[C@@H](Cc1c[nH]c2ccccc12)C(=O)N[C@@H](CC(N)=O)C(=O)N[C@@H](Cc1c[nH]c2ccccc12)C(=O)N[C@@H](Cc1ccccc1)C(=O)O (H-ELDKWASLWNWF-OH) has a Ki [1] of 1200 ± 100 nM, a Ki [2] of 940 ± 150 nM and a Ki [3] of 1050 ± 100 nM.

With CSCC[C@H](N)C(=O)N[C@@H](Cc1ccc(O)cc1)C(=O)N[C@H](C(=O)N[C@@H](CCCCN)C(=O)N[C@@H](Cc1c[nH]c2ccccc12)C(=O)N1CCC[C@H]1C(=O)N[C@@H](Cc1c[nH]c2ccccc12)C(=O)N[C@@H](Cc1ccc(O)cc1)C(=O)N[C@H](C(=O)N[C@@H](Cc1c[nH]c2ccccc12)C(=O)N[C@@H](CC(C)C)C(=O)O)C(C)C)C(C)C (H-MYVKWPWYVWL-OH) the Ki [1] was 783 ± 50 nM, the “fold enhancement of affinity on formylation” value (“fold enhancement of affinity” below) [1] was 6 fold and the Ki [2] was 837 ± 32 nM. The “fold enhancement of affinity” value [2] was 6 fold, the “fold enhancement of affinity” value [3] was 2 fold and the “fold higher affinity for W190/N192 than for R190/N192 or R190/K192” value [3] was 3 fold. The Ki [3] was 263 ± 9 nM, the “inhibition of 300 nM formyl-MYVKWPWYVWL stimulation of GTPγS binding” value [4] was “did not have a significant effect” and the “stimulation of GTPγS binding” value [4] was “neither ETYIKWPWWVWL nor MYVKWPWYVWL had any effect”. The “inhibition of 300 nM formyl-MYVKWPWYVWL stimulation of GTPγS binding” value [5] was “did not have a significant effect”, the “stimulation of GTPγS binding” value [5] was “neither ETYIKWPWWVWL nor MYVKWPWYVWL had any effect” and the “inhibition of 300 nM formyl-MYVKWPWYVWL stimulation of GTPγS binding” value [6] was 60%. The “stimulation of GTPγS binding” value [6] was “neither ETYIKWPWWVWL nor MYVKWPWYVWL had any effect”.

CC[C@H](C)[C@H](NC(=O)[C@H](CC(N)=O)NC(=O)[C@H](CC(=O)O)NC(=O)[C@@H](NC(=O)[C@H](CC(C)C)NC(=O)[C@@H](NC(=O)[C@H](CCC(N)=O)NC(=O)[C@H](CC(C)C)NC(=O)[C@H](CCCCN)NC(=O)[C@H](CCC(N)=O)NC(=O)[C@@H](N)C(C)C)[C@@H](C)O)[C@@H](C)CC)C(=O)N[C@@H](CC(N)=O)C(=O)N[C@@H](CO)C(=O)N[C@H](C(=O)N[C@@H](CC(C)C)C(=O)N[C@H](C(=O)N[C@@H](CC(=O)O)C(=O)N[C@@H](CC(C)C)C(=O)N[C@@H](CCCCN)C(=O)N[C@@H](Cc1c[nH]c2ccccc12)C(=O)N[C@@H](CC(C)C)C(=O)N[C@@H](CC(N)=O)C(=O)N[C@@H](CCCNC(=N)N)C(=O)N[C@H](C(=O)N[C@@H](CCC(=O)O)C(=O)N[C@H](C(=O)N[C@@H](Cc1ccc(O)cc1)C(=O)N[C@H](C(=O)N[C@@H](CCCCN)C(=O)N[C@@H](Cc1c[nH]c2ccccc12)C(=O)N1CCC[C@H]1C(=O)N[C@@H](Cc1c[nH]c2ccccc12)C(=O)N[C@@H](Cc1c[nH]c2ccccc12)C(=O)N[C@H](C(=O)N[C@@H](Cc1c[nH]c2ccccc12)C(=O)N[C@@H](CC(C)C)C(=O)O)C(C)C)[C@@H](C)CC)[C@@H](C)O)C(C)C)C(C)C)[C@@H](C)O [Coronavirus 229E 36 mer] gave a Ki [1] of 10000 nM, a Ki [2] of 6800 nM and a Ki [3] of 1300 ± 60 nM.

Work on CC[C@H](C)[C@H](NC(=O)[C@H](C)NC(=O)[C@H](CCC(=O)O)NC(=O)[C@H](CCC(N)=O)NC(=O)[C@H](CC(C)C)NC(=O)[C@H](CCCNC(=N)N)NC(=O)[C@H](CC(N)=O)NC(=O)[C@@H](N)CCSC)C(=O)N[C@@H](CCCCN)C(=O)N[C@H](C(=O)N[C@@H](CC(C)C)C(=O)N[C@@H](CC(N)=O)C(=O)N[C@@H](CCC(N)=O)C(=O)N[C@@H](CO)C(=O)N[C@@H](Cc1ccc(O)cc1)C(=O)N[C@H](C(=O)N[C@@H](CC(N)=O)C(=O)N[C@@H](CC(C)C)C(=O)N[C@@H](CCCCN)C(=O)N[C@@H](CC(=O)O)C(=O)N[C@H](C(=O)NCC(=O)N[C@H](C(=O)N[C@@H](Cc1ccc(O)cc1)C(=O)N[C@@H](CCC(=O)O)C(=O)N[C@@H](Cc1ccc(O)cc1)C(=O)N[C@@H](Cc1ccc(O)cc1)C(=O)N[C@H](C(=O)N[C@@H](CCCCN)C(=O)N[C@@H](Cc1c[nH]c2ccccc12)C(=O)N1CCC[C@H]1C(=O)N[C@@H](Cc1c[nH]c2ccccc12)C(=O)N[C@@H](Cc1ccc(O)cc1)C(=O)N[C@H](C(=O)N[C@@H](Cc1c[nH]c2ccccc12)C(=O)N[C@@H](CC(C)C)C(=O)O)C(C)C)C(C)C)[C@@H](C)O)[C@@H](C)CC)[C@@H](C)CC)C(C)C [Coronavirus OC43 36mer] yielded a Ki [1] of 850 ± 80 nM, a Ki [2] of 740 ± 80 nM and a Ki [3] of 460 ± 50 nM.

For CC[C@H](C)[C@H](NC(=O)[C@H](Cc1ccc(O)cc1)NC(=O)[C@@H](NC(=O)[C@@H](N)CCC(=O)O)[C@@H](C)O)C(=O)N[C@@H](CCCCN)C(=O)N[C@@H](Cc1c[nH]c2ccccc12)C(=O)N1CCC[C@H]1C(=O)O [ETYIKWP] (H-ETYIKWP-OH), the Ki [1] was over 260000 nM, the Ki [2] was over 260000 nM and the Ki [3] was over 260000 nM. The “EC50 for inhibition of stimulation of GTPγS binding by formyl-Nle–Leu–Phe” value [6] was “had no effect”.

CC[C@H](C)[C@H](NC(=O)[C@H](CC(N)=O)NC(=O)[C@H](C)NC(=O)[C@H](CCC(=O)O)NC(=O)[C@H](CC(C)C)NC(=O)[C@@H](N)Cc1ccc(O)cc1)C(=O)N[C@@H](CO)C(=O)N[C@@H](CCC(=O)O)C(=O)N[C@@H](CC(C)C)C(=O)N[C@@H](CC(C)C)C(=O)N[C@@H](CCC(=O)O)C(=O)N[C@@H](CCC(N)=O)C(=O)N[C@@H](C)C(=O)N[C@@H](CCC(N)=O)C(=O)N[C@H](C(=O)N[C@@H](CCC(N)=O)C(=O)N[C@@H](CCC(N)=O)C(=O)N[C@@H](CCC(=O)O)C(=O)N[C@@H](CCCCN)C(=O)N[C@@H](CC(N)=O)C(=O)N[C@@H](CCSC)C(=O)N[C@@H](Cc1ccc(O)cc1)C(=O)N[C@@H](CCC(=O)O)C(=O)N[C@@H](CC(C)C)C(=O)N[C@@H](CCC(N)=O)C(=O)N[C@@H](CCCCN)C(=O)N[C@@H](CC(C)C)C(=O)N[C@@H](CC(N)=O)C(=O)N[C@@H](CO)C(=O)N[C@@H](Cc1c[nH]c2ccccc12)C(=O)N[C@@H](CC(=O)O)C(=O)N[C@H](C(=O)N[C@@H](Cc1ccccc1)C(=O)NCC(=O)N[C@@H](CC(N)=O)C(=O)N[C@@H](Cc1c[nH]c2ccccc12)C(=O)N[C@@H](Cc1ccccc1)C(=O)O)C(C)C)[C@@H](C)CC [HIV-2 37 mer] gave a Ki [1] of 15700 nM, a Ki [2] of 10000 nM and a Ki [3] of 4000 ± 1000 nM.

In the case of CSCC[C@H](NC(=O)[C@@H](N)CCSC)C(=O)N[C@@H](Cc1c[nH]c2ccccc12)C(=O)N[C@@H](CC(C)C)C(=O)N[C@@H](CC(C)C)C(=O)O [MMWLL, reference compound] (H-MMWLL-OH), the Ki [1] is reported as 330 ± 50 nM, the Ki [2] is reported as 190 ± 30 nM and the “fold higher affinity for R190/K192 than for W190/N192” value [2] is reported as about 3 fold. It also gave a Ki [3] of 840 ± 200 nM.

For CC(C)C[C@H](NC(=O)[C@H](Cc1c[nH]c2ccccc12)NC(=O)[C@@H](NC(=O)[C@H](Cc1c[nH]c2ccccc12)NC(=O)[C@H](Cc1c[nH]c2ccccc12)NC(=O)[C@@H]1CCCN1C(=O)[C@@H](N)Cc1c[nH]c2ccccc12)C(C)C)C(=O)O [WPWWVWL] (H-WPWWVWL-OH), the Ki [1] was about 600 nM, the Ki [2] was about 600 nM and the Ki [3] was about 600 nM.

In the case of CC(C)C[C@H](NC(=O)[C@H](Cc1c[nH]c2ccccc12)NC(=O)[C@@H](NC(=O)[C@H](Cc1c[nH]c2ccccc12)NC(=O)[C@@H](N)Cc1c[nH]c2ccccc12)C(C)C)C(=O)O [WWVWL] (H-WWVWL-OH), the Ki [1] is reported as about 1000 nM, the Ki [2] is reported as about 1400 nM and the Ki [3] is reported as about 600 nM. For the same molecule, the EC50 [6] was 1300 nM.

B1: Formyl peptide receptor (FPR R190/K192), P21462 (protein)
chain: METNSSLPTNISGGTPAVSAGYLFLDIITYLVFAVTFVLGVLGNGLVIWVAGFRMTHTVTTISYLNLAVADFCFTSTLPFFMVRKAMGGHWPFGWFLCKFVFTIVDINLFGSVFLIALIALDRCVCVLHPVWTQNHRTVSLAKKVIIGPWVMALLLTLPVIIRVTTVPGKTGTVACTFNFSPWTNDPKERIKVAVAMLTVRGIIRFIIGFSAPMSIVAVSYGLIATKIHKQGLIKSSRPLRVLSFVAAAFFLCWSPYQVVALIATVRIRELLQGMYKEIGIAVDVTSALAFFNSCLNPMLYVFMGQDFRERLIHALPASLERALTEDSTQTSDTATNSTLPSAEVELQAK
In the case of B1, the Ki [7] is reported as 190 nM and the Ki [8] is reported as over 50000 nM.

B2: Formyl peptide receptor (FPR W190/N192), P21462 (protein)
chain: METNSSLPTNISGGTPAVSAGYLFLDIITYLVFAVTFVLGVLGNGLVIWVAGFRMTHTVTTISYLNLAVADFCFTSTLPFFMVRKAMGGHWPFGWFLCKFVFTIVDINLFGSVFLIALIALDRCVCVLHPVWTQNHRTVSLAKKVIIGPWVMALLLTLPVIIRVTTVPGKTGTVACTFNFSPWTNDPKEWINVAVAMLTVRGIIRFIIGFSAPMSIVAVSYGLIATKIHKQGLIKSSRPLRVLSFVAAAFFLCWSPYQVVALIATVRIRELLQGMYKEIGIAVDVTSALAFFNSCLNPMLYVFMGQDFRERLIHALPASLERALTEDSTQTSDTATNSTLPSAEVELQAK
Molecule B2 has a Ki [7] of 840 nM and a Ki [8] of over 50000 nM.
